Laboratory results as given in patent publication US20060035810A1, “Regulation of ins(3456)p4 signalling by a reversible kinase phosphatase and methods and compositions related thereto” (priority 2002, published 2006).

What was measured:
[1] = molecular target: T1, Recombinant human Ins(3,4,5,6)P4 1-kinase (Homo sapiens, UniProt Q13572); test: Inositol phosphate kinase activity assay (HPLC); format: biochemical; conditions: for product of phosphorylation by the kinase: 50 uM substrate, 3.4 ug enzyme, 4 hr, 37° C., 5 mM ATP
T1 construct: made in house; host or cells: E. coli
T1 sequence (Q13572 1-414): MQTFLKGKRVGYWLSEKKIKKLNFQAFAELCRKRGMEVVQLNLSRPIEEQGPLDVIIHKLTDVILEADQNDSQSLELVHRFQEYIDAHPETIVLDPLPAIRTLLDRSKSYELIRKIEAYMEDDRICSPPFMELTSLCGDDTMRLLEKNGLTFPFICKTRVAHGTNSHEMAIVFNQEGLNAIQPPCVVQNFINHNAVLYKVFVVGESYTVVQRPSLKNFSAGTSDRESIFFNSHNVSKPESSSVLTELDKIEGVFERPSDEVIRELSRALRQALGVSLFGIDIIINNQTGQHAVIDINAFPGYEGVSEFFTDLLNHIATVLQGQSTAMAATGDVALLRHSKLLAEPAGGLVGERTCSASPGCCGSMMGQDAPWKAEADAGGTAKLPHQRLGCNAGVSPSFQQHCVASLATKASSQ
Description: (§1) Inositol phosphate phosphatase activity was assayed in buffer containing 100 mM KCl, 20 mM HEPES pH 7.2, 5 mM ADP, 6 mM MgSO4, 0.3 mg/ml bovine serum albumin. Assays were acid-quenched, neutralized and analyzed by HPLC using a Synchropak Q100 columm (Caffrey et al., “Expanding Coincident Signaling by PTEN through its Inositol 1,3,4,5,6-Pentakisphosphate 3-phosphatase Activity,” FEBS Lett 499: 6-10 (2001)); 1 ml fractions were collected for 70 min., followed by 0.5 ml fractions. Inositol phosphate kinase activity was assayed in buffer containing 100 mM KCl, 20 mM HEPES pH 7.2, 5 mM ATP, 10 mM phosphocreatine, 6 mM MgSO4, 10 μg/ml creatine phosphokinase (Calbiochem), 0.3 mg/ml bovine serum albumin. Some assays were acid-quenched and analyzed by HPLC using a Synchropak Q100 column. Other reactions were heat-inactivated (95° C., 3 min) and analyzed by a metal dye detection, HPLC method (Mayr, “A novel metal-dye detection sysytem permits picomolar-range h.p.l.c. analysis of inositol polyphosphates from non-radioactively labelled cell or tissue specimens,” Biochem J 254: 585-591 (1988); Adelt et al., “Enzyme-assisted total synthesis of the optical antipodes D-myo-inositol 3,4,5-trisphosphate and D-myo-inositol 1,5,6-trisphosphate: aspects of their structure-activity relationship to biologically active inositol phosphates,” J Med Chem 42: 1262-1273 (1999)).
Activity of 3.4 ug of inositol 3,4,5,6-tetrakisphosphate 1-kinase was assayed for 4 hr. at 37° C. in 200 μl buffer containing 100 mM KCl, 20 mM HEPES pH 7.2, 5 mM ATP, 10 mM phosphocreatine, 6 mM MgSO4, 10 μg/ml creatine phosphokinase (Calbiochem), 0.3 mg/ml bovine serum albumin and 50 uM of either inositol 3,4,5-trisphosphate, 4,5,6-trisphosphate or inositol 3,5,6-trisphosphate. Reactions were heat-inactivated (95° C., 3 min) and analyzed by a metal dye detection, HPLC method.
[…] (Manassas, Va.) supplied the CFPAC-1 cells and T84 cells. Recombinant human Ins(3,4,5,6)P4 1-kinase was expressed in E. coli and purified (Yang et al., “Multitasking in Signal Transduction by a Promiscuous Human Ins(3,4,5,6)P4 1-Kinase/Ins(1,3,4)P3 5/6-Kinase,” Biochem J 351: 551-555 (2000)). Non-radiolabeled Ins(1,3,4)P3 and Ins(1,3,4,5,6)P5 were purchased from CellSignals Inc (Lexington, Ky.). The details of the synthesis of non-radiolabeled Ins(3,4,5)P3, Ins(3,5,6)P3, Ins(4,5,6)P3 and Ins(3,4,6)P3 (as sodium salts) will be published separately by S.-K. C. Ins(3,4,6)P3 was also prepared by a different synthetic route (Mills et al., “Synthesis of D- and L-myo-inositol 1,4,6-trisphosphate, regioisomers of a ubiquitous second messenger,” J Org Chem 61: 8980-8987 (1996)). [^3H]Ins(1,3,4,5,6)P5 was prepared as previously described (Zhang et al., “The Transcriptional Regulator, Arg82, is a Hybrid Kinase with both Monophosphoinositol- and Diphosphoinositol-Polyphosphate Synthase Activity,” FEBS Lett 494: 208-212 (2001)). [^3H]Ins(1,3,4)P3 was prepared from [^3H]Ins(1,3,4,5)P4 (New England Nuclear) using recombinant Ins(1,4,5)P3/Ins(1,3,4,5)P4 5-phosphatase (Erneux et al., “Production of recombinant human brain type I inositol-1,4,5-trisphosphate 5-phosphatase in Escherichia coli. Lack of phosphorylation by protein kinase C,” Eur J Biochem 234: 598-602 (1995)). [^3H]Ins(1,3,4)P3 was converted to [^3H]Ins(1,3,4,6)P4 using Ins(1,3,4)P3 6-kinase activity (Yang et al., “Multitasking in Signal Transduction by a Promiscuous Human Ins(3,4,5,6)P4 1-Kinase/Ins(1,3,4)P3 5/6-Kinase,” Biochem J 351: 551-555 (2000)). [^3H]Ins(3,4)P2 was prepared by alkaline phosphatase attack on [^3H]Ins(1,3,4)P3 in 20 mM glycine (pH 9.0 with KOH). [^3H]Ins(1,4)P2 was purchased from New England Nuclear.

[2] = test system: calcium-activated Cl− channels; test: Whole-cell Cl− current in CFPAC-1 cells (bio-assay for Ins(3,4,5,6)P4); format: cell-based, human; conditions: 100 μM introduced into CFPAC-1 cells; control 54±3 pA/pF
Description: T84 cells were detached by incubation with 0.25% (w/v) trypsin/0.02% (w/v) EDTA for 5-6 min. After trypsin removal, 200 μl aliquots (1.5×10^6/ml) were seeded into the circular wells (area=0.45 cm^2) of permeable supports, made by gluing (Silastic® sealant, Dow Corning, Midland, Mich.) a Sylgard® ring to filters composed of mixed cellulose esters (Millipore Corp., Bedford, Mass.). Seeded supports were floated on culture medium and incubated for 11-14 days before being mounted in modified Snapwell holders in Using chambers (EasyMount System, Physiologics Instruments, San Diego, Calif.). Transcellular Cl^− flux was then recorded as the short-circuit current as previously described. The resistance of the monolayers were (vector) 346±44 ohms/cm^2 (mean±se, n=12) and (kinase) 354±62 ohms/cm^2 (mean±se, n=12). Whole-cell Cl^− currents in CFPAC—I cells were measured at +40 mV as previously described using an intracellular Ca^2+-BAPTA buffer to clamp free [Ca^2+] to 0.5 μM [8]. One possibility is that Ins(3,4,5,6)P4 originates by phosphorylation of an InsP3 precursor. […] Control whole-cell Cl^− current (54±3 pA/pF, n—17) was reduced to 24±3 pA/pF (n=7) by 10 μM Ins(3,4,5,6)P4.

[3] = test system: insulin granules in pancreatic β-cells; test: Insulin granule acidification, LSG fluorescence with patch-clamp and confocal imaging; format: cell-based, mouse
Description: FIG. 6. Ins(3,4,5,6)P4 inhibits acidification of insulin granules in pancreatic β-cells. FIG. 6A, Representative time-courses for intragranular acidification, monitored by increased fluorescence of LSG before and after establishment of the standard whole-cell configuration (see arrow) and the effect of perfusion of intracellular medium (containing 0.4 μM [Ca^2+]free except where “no calcium” is indicated; see Methods) plus either 0 (“control”), 1 or 10 μM Ins(3,4,5,6)P4. FIG. 6B, Mean (±SE) fluorescence changes (n-5-11), during the 60 s that followed establishment of the standard whole-cell configuration, for cells perfused with inositol phosphates as indicated at the base of the bar graph. Where indicated, DIDS (100 μM) were added to the bath solution 30 min prior to patching the cells. Statistical significance was evaluated by Student's unpaired t-test (* P<0.01).
The inositol phosphates used in this study were all purchased from CellSignals Inc (Lexington, Ky.). Insulin granule pH were monitored by combining the patch-clamp technique with confocal imaging. Pancreatic β-cells, isolated and cultured on glass coverslips for 2-24 h, were voltage clamped at −70 mV, as previously described (B9). LysoSensor-Green™ DND-189 (1 μM; Molecular Probes, Leiden, The Netherlands) was added during the last 30 min of cell culture and was also included in the extracellular buffer (B9) that continuously perfused the experimental chamber. All LSG experiments were performed at 20° C. to prevent exocytosis that otherwise interfered with the optical measurements (15). LSG fluorescence was excited using the 488 nm-line of a Zeiss 510 confocal microscope. The emitted light was collected with a 63×/1.3 NA oil objective and a >505 nm filter. Laser scanning was performed with low pixel resolution (128×128) and with 6 s intervals to minimize photo-bleaching. After gigaseal formation, it was ascertained that LSG fluorescence was stable for at least 30 s before the experiment commenced. The intracellular electrode solution contained: 125 mM K-glutamate, 10 mM KCl, 1 0 mM NaCl, 1 mM MgCl2, 5 mM HEPES, 3 mM Mg-ATP, 0.1 mM cAMP, 10 mM EGTA and 7 mM CaCl2 (˜0.4 μM free [Ca^2+]I; pH 7.2 with KOH). In some experiments, marked “no calcium”, there was no added Ca^2+, and the concentration of EGTA was 50 μM. Whole-cell capacitance measurements (at 33° C.) were made with the cells clamped at −70 mV, and the standard whole-cell configuration was established at t=0. Capacitance recordings were made using an EPC-7 patch-clamp amplifier equipped with the software Pulse (version 8.4 and later) and the X-chart extension (HEKA Elektronik, Lambrecht/Pfalz, Germany) (B9).

[4] = molecular target: T2, Ins(1,3,4,5,6)P5 1-phosphatase activity of Ins(3,4,5,6)P4 kinase (Homo sapiens, UniProt Q13572); test: Inositol phosphate phosphatase activity assay with ADP (HPLC); format: biochemical; conditions: 5 μM Ins(1,3,4,5,6)P5, 5 mM ADP, addition of 1-5 μM Ins(1,3,4)P3
T2 construct: made in house; host or cells: E. coli
T2 sequence (Q13572 1-414): T1 sequence (Q13572 1-414)
Description: Ins(3,4,5,6)P4 kinase (0.4 μg) was incubated for 30 min in 100 μl phosphatase assay buffer (see Methods) either with (closed circles) or without (open circles) 5 mM ADP plus trace-amounts of either [^3H]Ins(1,3,4,5,6)P5 (panel A) [^3H]Ins(1,3,4,6)P4 (panel B), or [^3H]Ins(1,3,4,5)P4 (panel C). Samples were analyzed by HPLC (see Methods). The elution positions of Ins(1,3,4)P3 and Ins(3,4,5,6)P4 were verified with genuine standards. The elution positions of Ins(1,3,4,6)P4 (106 min, panel B) and of Ins(1,3,4,5)P4 (110 min, panel C) exclude these as products of InsP5 dephosphorylation (panel A).
Additional incubations were performed with 5 μM [^3H]Ins(1,3,4)P3 (approx. 1200 d.p.m.) plus either no Ins(1,3,4,5,6)P5 (open circles) or 5 μM non-radiolabeled Ins(1,3,4,5,6)P5 (closed circles); these reactions were assayed by HPLC (Synchropak Q100 column) and the InsP4 region of the chromatogram is shown in Panel B.
as §1

Structure (SMILES) | product of phosphorylation by the kinase [1] | whole-cell Cl− current [2] [pA/pF] | whether the enzyme phosphorylates the inositol phosphate [1] | further results
O=P(O)(O)OC1[C@@H](OP(=O)(O)O)[C@@H](O)C(O)[C@H](O)[C@H]1OP(=O)(O)O (stereo partly drawn) [Ins(3,4,5)P3, inositol 3,4,5-trisphosphate] | phosphorylated to inositol 3,4,5,6-tetrakisphosphate | 61±7 |  | 
O=P(O)(O)O[C@@H]1[C@@H](O)[C@H](OP(=O)(O)O)[C@@H](OP(=O)(O)O)[C@H](O)[C@@H]1O [Ins(3,5,6)P3, inositol 3,5,6-trisphosphate] | phosphorylated to inositol 1,3,5,6-tetrakisphosphate | 60±6 |  | 
O=P(O)(O)O[C@H]1[C@H](O)[C@@H](O)[C@H](OP(=O)(O)O)[C@@H](O)[C@H]1O [Ins(1,4)P2] |  |  | not phosphorylated | 
O=P(O)(O)O[C@H]1[C@H](OP(=O)(O)O)[C@@H](OP(=O)(O)O)[C@@H](O)[C@@H](O)[C@@H]1OP(=O)(O)O [Ins(1,4,5,6)P4, inositol 1,4,5,6-tetrakisphosphate] |  |  | does not phosphorylate | effect on vesicle acidification ([3]; 100 μM): neither 100 μM Ins(1,4,5,6)P4 nor 100 μM Ins(1,3,4,5,6)P5 affected
O=P(O)(O)OC1C(O)C(O)C(O)C(OP(=O)(O)O)C1OP(=O)(O)O (stereo not drawn) [Ins(4,5,6)P3, inositol 4,5,6-trisphosphate] | phosphorylated to inositol 1,4,5,6-tetrakisphosphate | 56±7 |  | 
O=P(O)(O)O[C@H]1[C@H](O)[C@@H](OP(=O)(O)O)[C@H](OP(=O)(O)O)[C@@H](OP(=O)(O)O)[C@H]1O [Ins(1,3,4,5)P4] |  |  | does not phosphorylate | 
O=P(O)(O)O[C@H]1[C@H](O)[C@H](O)[C@H](OP(=O)(O)O)[C@@H](OP(=O)(O)O)[C@@H]1O [Ins(3,4,6)P3, inositol 3,4,6-trisphosphate] | metabolized to Ins(1,3,4,5)P4 | 68±5 |  | Km ([1]; read-out: Km as kinase substrate): 0.2 µM
O=P(O)(O)O[C@@H]1[C@H](O)[C@H](O)[C@@H](OP(=O)(O)O)[C@H](OP(=O)(O)O)[C@H]1O [Ins(1,3,4)P3, inositol 1,3,4-trisphosphate] |  |  |  | increase of net accumulation of Ins(3,4,5,6)P4 [4]: up to 5 fold
NCCCCCCNS(=O)(=O)c1cccc2c(Cl)cccc12 [W-7] |  |  |  | effect on granule acidification ([3]; treatment of the cells with calmodulin antagonist): without effect
